# In patent US20100216779A1 (GLAXOSMITHKLINE LLC, priority 2007, published 2010):
# Columns and labels:
# Type in all cases: cell-based
# [1] = biological target: T1, human IGF-1R (NIH-3T3 cells over expressing human IGF-1R) (Homo sapiens, UniProt P08069); assay: IGF-1R cellular autophosphorylation (DELFIA); settings: IGF-1 stimulated
# T1 construct: expressed in transfected cells; host or cells: NIH-3T3 (mouse fibroblasts)
# Summary of the method: (§1)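 Read-out: DELFIA on lysates, receptor-specific capture antibody plus europium-labelled anti-phosphotyrosine, reported as % of IGF-1- or insulin-stimulated signal. Transfected NIH-3T3 cells got compound (30 uM–1.5 nM, 2 h) before a 15 min ligand pulse: IGF-1 30 ng/mL for IGF-1R, insulin 3 ug/mL for IR.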
# COLO205 (colon) = assay: Inhibition of cell proliferation, CellTiter-Glo, COLO205; settings: Homo sapiens, COLO 205, 72 h
# Summary of the method: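 Exponentially growing COLO205 cells in medium with 10% FBS were plated below 2000 cells/well at 37 °C, 5% CO2. Untreated wells served as controls.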
# [2] = biological target: T2, IR (NIH-3T3 cells over expressing human IGF-1R or IR) (Homo sapiens, UniProt P06213); assay: IR cellular autophosphorylation (DELFIA); settings: NIH-3T3 cells over expressing IR, insulin stimulated
# T2 construct: expressed in transfected cells; host or cells: NIH-3T3 (mouse fibroblasts)
# T2 sequence (P06213 28-1382): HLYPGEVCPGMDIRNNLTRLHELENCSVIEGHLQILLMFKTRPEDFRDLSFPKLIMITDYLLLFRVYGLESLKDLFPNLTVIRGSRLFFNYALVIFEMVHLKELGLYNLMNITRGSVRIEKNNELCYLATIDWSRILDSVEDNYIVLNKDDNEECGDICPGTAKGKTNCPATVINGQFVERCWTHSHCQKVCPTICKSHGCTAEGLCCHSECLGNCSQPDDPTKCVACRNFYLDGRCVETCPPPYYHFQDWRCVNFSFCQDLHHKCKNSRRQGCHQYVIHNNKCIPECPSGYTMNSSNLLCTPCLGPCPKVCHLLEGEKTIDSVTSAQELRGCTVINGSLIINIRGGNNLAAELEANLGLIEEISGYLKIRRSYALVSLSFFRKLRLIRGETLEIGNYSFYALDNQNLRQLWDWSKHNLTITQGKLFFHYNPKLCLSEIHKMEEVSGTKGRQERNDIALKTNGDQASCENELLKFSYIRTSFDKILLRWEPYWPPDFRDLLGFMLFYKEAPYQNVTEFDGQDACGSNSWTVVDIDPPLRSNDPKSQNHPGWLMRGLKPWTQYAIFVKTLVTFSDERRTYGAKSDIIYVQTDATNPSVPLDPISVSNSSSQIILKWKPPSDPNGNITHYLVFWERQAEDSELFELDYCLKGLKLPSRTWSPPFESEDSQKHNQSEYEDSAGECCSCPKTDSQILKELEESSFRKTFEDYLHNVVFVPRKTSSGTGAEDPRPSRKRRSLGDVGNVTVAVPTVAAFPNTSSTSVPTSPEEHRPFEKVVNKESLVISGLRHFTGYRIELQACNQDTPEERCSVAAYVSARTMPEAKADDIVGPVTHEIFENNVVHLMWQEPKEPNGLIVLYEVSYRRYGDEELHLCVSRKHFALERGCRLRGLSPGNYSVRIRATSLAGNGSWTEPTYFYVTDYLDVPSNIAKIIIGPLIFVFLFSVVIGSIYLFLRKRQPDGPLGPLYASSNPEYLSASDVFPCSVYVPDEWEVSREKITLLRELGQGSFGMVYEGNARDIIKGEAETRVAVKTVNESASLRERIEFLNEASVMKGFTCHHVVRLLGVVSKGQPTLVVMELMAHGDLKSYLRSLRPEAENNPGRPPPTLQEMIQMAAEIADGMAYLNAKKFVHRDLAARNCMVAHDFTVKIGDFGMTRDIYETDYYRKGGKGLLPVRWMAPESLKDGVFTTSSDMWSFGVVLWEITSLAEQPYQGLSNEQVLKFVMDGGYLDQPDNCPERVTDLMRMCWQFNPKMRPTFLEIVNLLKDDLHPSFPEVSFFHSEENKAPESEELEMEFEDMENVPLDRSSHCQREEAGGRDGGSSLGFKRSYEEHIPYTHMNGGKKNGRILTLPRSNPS
# Summary of the method: as §1
# [3] = system: NCI-H929 (multiple myeloma); assay: Inhibition of cell proliferation, CellTiter-Glo, NCI-H929; settings: Homo sapiens, 72 h
# Summary of the method: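 Cells were grown in medium with 10% FBS at 37° C, 5% CO2. Cell number was read as CellTiter-Glo luminescence (cellular ATP), with untreated wells as control.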
# T1 sequence (P08069 31-1367): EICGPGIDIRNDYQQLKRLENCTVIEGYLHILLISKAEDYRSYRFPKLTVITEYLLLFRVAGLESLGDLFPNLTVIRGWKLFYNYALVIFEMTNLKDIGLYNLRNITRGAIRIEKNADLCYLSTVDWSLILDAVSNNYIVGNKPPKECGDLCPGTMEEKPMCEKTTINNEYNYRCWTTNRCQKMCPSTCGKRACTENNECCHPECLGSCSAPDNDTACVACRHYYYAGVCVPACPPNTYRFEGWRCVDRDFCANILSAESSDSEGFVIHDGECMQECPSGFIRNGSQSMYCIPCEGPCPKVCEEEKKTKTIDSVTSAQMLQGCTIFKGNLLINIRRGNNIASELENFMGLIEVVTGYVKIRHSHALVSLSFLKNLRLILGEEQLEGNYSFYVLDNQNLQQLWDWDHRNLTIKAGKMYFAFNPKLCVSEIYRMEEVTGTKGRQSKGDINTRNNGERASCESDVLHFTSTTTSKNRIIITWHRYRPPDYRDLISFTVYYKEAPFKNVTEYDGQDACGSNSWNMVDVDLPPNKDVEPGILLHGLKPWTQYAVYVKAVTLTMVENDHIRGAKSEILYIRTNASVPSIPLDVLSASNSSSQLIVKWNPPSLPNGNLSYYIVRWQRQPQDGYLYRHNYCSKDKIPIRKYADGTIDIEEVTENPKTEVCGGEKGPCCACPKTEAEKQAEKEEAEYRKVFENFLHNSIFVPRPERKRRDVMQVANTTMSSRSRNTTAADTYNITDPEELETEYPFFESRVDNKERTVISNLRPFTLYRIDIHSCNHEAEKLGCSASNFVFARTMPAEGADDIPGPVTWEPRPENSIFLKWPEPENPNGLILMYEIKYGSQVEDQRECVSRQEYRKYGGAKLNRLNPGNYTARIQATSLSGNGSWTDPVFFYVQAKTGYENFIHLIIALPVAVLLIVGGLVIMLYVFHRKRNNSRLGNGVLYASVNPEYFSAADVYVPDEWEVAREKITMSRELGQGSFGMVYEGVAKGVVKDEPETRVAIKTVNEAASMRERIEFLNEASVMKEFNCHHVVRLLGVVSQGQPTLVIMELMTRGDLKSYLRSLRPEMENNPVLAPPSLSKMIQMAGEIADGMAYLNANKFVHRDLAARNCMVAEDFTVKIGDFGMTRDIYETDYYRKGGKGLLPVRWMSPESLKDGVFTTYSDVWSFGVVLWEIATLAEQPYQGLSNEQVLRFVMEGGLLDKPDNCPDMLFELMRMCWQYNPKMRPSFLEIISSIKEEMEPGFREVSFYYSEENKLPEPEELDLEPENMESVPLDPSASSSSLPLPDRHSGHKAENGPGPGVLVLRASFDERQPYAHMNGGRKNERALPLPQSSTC
Compound,IC50 [1] [nM],IC50 (COLO205 (colon)) [nM],IC50 [2] [nM],IC50 [3] [nM]
"CCOc1cc(N2CCC(N3CCN(CC(F)F)CC3)CC2)ccc1Nc1nccc(-c2c(-c3cccc(C(=O)Nc4c(F)cccc4F)c3)nc3ccccn23)n1 [Example 117, 3-[3-(2-{[4-{4-[4-(2,2-difluoroethyl)-1-piperazinyl]-1-piperidinyl}-2-(ethyloxy)phenyl]-amino}-4-pyrimidinyl)imidazo[1,2-a]pyridin-2-yl]-N-(2,6-difluorophenyl)benzamide]",< 100,> 1000,< 100,250 to 1000
"CCCN1CCN(c2ccc(Nc3nccc(-c4c(-c5ccc(OCC)c(C(=O)Nc6c(F)cccc6F)c5)nc5ccccn45)n3)c(OC)c2)CC1 [Example 178, N-(2,6-difluorophenyl)-2-(ethyloxy)-5-[3-(2-{[2-(methyloxy)-4-(4-propyl-1-piperazinyl)phenyl]amino}-4-pyrimidinyl)imidazo[1,2-a]pyridin-2-yl]benzamide]",< 100,250 to 1000,< 100,< 250
"CCCN1CCC(c2ccc(Nc3nccc(-c4c(-c5cccc(C(=O)Nc6c(F)cccc6F)c5)nc5ccccn45)n3)c(OC)c2)CC1 [Example 138, N-(2,6-difluorophenyl)-3-[3-(2-{[2-(methyloxy)-4-(1-propyl-4-piperidinyl)phenyl]amino}-4-pyrimidinyl)imidazo[1,2-a]pyridin-2-yl]benzamide]",< 100,250 to 1000,< 100,< 250
"CCCN1CCC(c2cc(OC)c(Nc3nccc(-c4c(-c5ccc(OC)c(C(=O)Nc6c(F)cccc6F)c5)nc5ccccn45)n3)cc2C)CC1 [Example 157, N-(2,6-difluorophenyl)-5-[3-(2-{[5-methyl-2-(methyloxy)-4-(1-propyl-4-piperidinyl)phenyl]-amino}-4-pyrimidinyl)imidazo[1,2-a]pyridin-2-yl]-2-(methyloxy)benzamide]",< 100,< 250,< 100,< 250

# Other lines, results leading:
IC50 [1] [nM],IC50 (COLO205 (colon)) [nM],IC50 [2] [nM],IC50 [3] [nM],Compound
< 100,< 250,< 100,< 250,"CCOc1cc(N2CCN(CCS(C)(=O)=O)CC2)c(C)cc1Nc1nccc(-c2c(-c3ccc(OCC)c(C(=O)Nc4c(F)cccc4F)c3)nc3ccccn23)n1 [Example 248, N-(2,6-difluorophenyl)-2-(ethyloxy)-5-(3-{2-[(2-(ethyloxy)-5-methyl-4-{4-[2-(methylsulfonyl)ethyl]-1-piperazinyl}phenyl)amino]-4-pyrimidinyl}imidazo[1,2-a]pyridin-2-yl)benzamide]"
< 100,250 to 1000,< 100,< 250,"CCOc1cc(N2CCC(N3CCN(S(C)(=O)=O)CC3)CC2)ccc1Nc1nccc(-c2c(-c3cccc(C(=O)Nc4c(F)cccc4F)c3)nc3ccccn23)n1 [Example 224, N-(2,6-difluorophenyl)-3-(3-{2-[(2-(ethyloxy)-4-{4-[4-(methylsulfonyl)-1-piperazinyl]-1-piperidinyl}phenyl)amino]-4-pyrimidinyl}imidazo[1,2-a]pyridin-2-yl)benzamide]"
< 100,250 to 1000,< 100,< 250,"CCOc1ccc(-c2nc3ccccn3c2-c2ccnc(Nc3ccc(N4CCN(CCOC)CC4)cc3OC)n2)cc1C(=O)Nc1c(F)cccc1F [Example 238, N-(2,6-difluorophenyl)-2-(ethyloxy)-5-(3-{2-[(2-(methyloxy)-4-{4-[2-(methyloxy)ethyl]-1-piperazinyl}phenyl)amino]-4-pyrimidinyl}imidazo[1,2-a]pyridin-2-yl)benzamide]"
< 100,< 250,< 100,< 250,"COc1cc(N2CCN(CCS(C)(=O)=O)CC2)c(Cl)cc1Nc1nccc(-c2c(-c3ccc(OC)c(C(=O)Nc4c(F)cccc4F)c3)nc3ccccn23)n1 [Example 213, 5-(3-{2-[(5-chloro-2-(methyloxy)-4-{4-[2-(methylsulfonyl)ethyl]-1-piperazinyl}phenyl)amino]-4-pyrimidinyl}imidazo[1,2-a]pyridin-2-yl)-N-(2,6-difluorophenyl)-2-(methyloxy)benzamide]"
